The values that follow are results of earlier work, collected in patent US8282955B2, “Method for the preparation of a pharmaceutical composition comprising 5-aminosalicylic acid for use in treatment of ulcerative colitis and Crohn's disease” (Ferring B.V., priority 2001, dated 2012).

The structures appear in SMILES notation.

The conditions of this data set: moisture and light.

For the compound `Nc1ccc(O)c(C(=O)O)c1` [Batch 5-ASA, 5-aminosalicylic acid], the Stability result is given as “poor stability”.
